The first data set in a line: in vitro. Conditions: human, hela cells, % viability.
On to `CCOC(=O)Cc1csc(NS(=O)(=O)c2cc(Cl)c(Cl)s2)n1` [CBK000847], for which the viability at 28.5 h, 10 µM came to 98%.
The same measure, in the same setting: then `C[C@H](Nc1nccnc1-c1ccsc1)c1ccccc1` [CBK088716], with 94.9%.
With `COc1ccc(OC)c(NC(=O)CSc2nnc(-c3ccco3)o2)c1` [CBK267429], the viability at 28.5 h, 10 µM was found to be 98.3%.
Same read-out and setting: then `Cc1ccc(NC(=O)c2ccc3c(c2)C(=O)N(c2cccc(N4C(=O)c5ccc(C(=O)Nc6ccc(C)cc6)cc5C4=O)n2)C3=O)cc1` [CBK261198], with 90.8%; and `COc1ccc(C(=O)NNC(=O)c2cccc(Cl)c2)cc1OC` [CBK261704], with 91.4%.
In the case of `S=C(NCCc1ccccc1)NCCN1CCOCC1` [CBK264929], the viability at 28.5 h, 10 µM came to 87.4%.
As to `FC(F)(F)c1ccc(CN2CCCN(c3cc(OC4CCCCC4)ncn3)CC2)cc1` [CBK083277T], the viability at 28.5 h, 10 µM is 112%.
Turning to `Cc1ccc(OCc2nnc(SCc3cccc(C#N)c3)n2N)cc1C` [CBK267420], the viability at 28.5 h, 10 µM stood at 84.1%.
With `CCn1cncc1CN1CCN(CC2(c3ccc(C)cc3)CC2)CC1` [CBK283307], the viability at 28.5 h, 10 µM stood at 105%.
Take `CSc1ccc(SC/C(N)=N/O)cc1` [CBK025411C]: the viability at 28.5 h, 10 µM was 96.1%.
On to `Cc1ccc(C(=O)C2=C(O)C(=O)N(CCCn3ccnc3)C2c2ccncc2)cc1` (stereo not shown) [CBK264476], for which the viability at 28.5 h, 10 µM is 106%.
Turning to `CCc1nn2c(O)cc(C)nc2c1-c1cccs1` [CBK283860], the viability at 28.5 h, 10 µM is 90.7%.
For `O=C(Nc1ccc(OC(F)(F)F)cc1)N1CCN(Cc2ccc3c(c2)OCO3)CC1` [CBK074754], the viability at 28.5 h, 10 µM stood at 99.5%.
As for `CC(=O)Nc1nc(NC(C)=O)n2c(-c3ccccc3)nnc2n1` [CBK026649], the viability at 28.5 h, 10 µM was found to be 93.7%.
Take `CCOc1ccc(NC(NC(=O)Nc2ccccc2)C(Cl)(Cl)Cl)cc1` (stereo not shown) [CBK261294]: the viability at 28.5 h, 10 µM was found to be 99.8%.
On the same count and under the same terms, to `O=c1c2c3nc4ccccc4nc3n(CCc3ccccc3)c2ncn1Cc1ccco1` [CBK269502] belongs 77.5%; to `COc1ccc(-c2nc(NC(=O)Cc3ccc(S(C)(=O)=O)cc3)cnc2-c2cccc(C)c2)cc1` [CBK037525], 88.2%.
For the molecule `O=C(O)c1ccc(-n2cccc2)cc1` [CBK016141], the viability at 28.5 h, 10 µM is 110%.
As to `O=C(O)c1cccc(Sc2cc(C(F)(F)F)ccn2)c1` [CBK093590], the viability at 28.5 h, 10 µM stood at 88.7%.
In the case of `O=C(Nc1ccccc1Nc1cc(-c2ccccc2)nn1-c1ccccc1)c1ccc(Br)cc1` [CBK261297], the viability at 28.5 h, 10 µM worked out at 84.7%.
The same measure, in the same setting: to `CSc1nc(C)c(CCC(=O)Nc2ccc(N3CC(C)OC(C)C3)nc2)c(C)n1` (stereo not shown) [CBK298266] belongs 87.4%.
On to `CCOC(=O)c1sc2nc(C)cc(C)c2c1N` [CBK097355], for which the viability at 28.5 h, 10 µM is 82.9%.
`CCN(CC(C)C#N)C(=O)c1cc2ccccc2oc1=O` (stereo not shown) [CBK305992]: the viability at 28.5 h, 10 µM came out at 87.8%.
`CC(CNCC1CCCO1)COc1cccc(Cl)c1` (stereo not shown) [CBK058789]: the viability at 28.5 h, 10 µM came out at 96%.
For the molecule `CCCc1c(C)nc2ccccc2c1SCC(=O)O` [CBK263558], the viability at 28.5 h, 10 µM was found to be 93.7%.
On the same count and under the same terms, then `COc1ccc(C(=O)Nc2ccc(C3c4ccsc4CCN3C(C)=O)cc2)cc1` (stereo not shown) [CBK286465], with 85%.
Same read-out and setting: to `c1ccc(CCNc2nc(-c3cccs3)cn3ccnc23)nc1` [CBK066633] belongs 101%; to `COc1ccc(C(=O)Nc2ccc(N3CCOCC3)c(Cl)c2)cc1[N+](=O)[O-]` [CBK263894], 100%.
Take `O=C(O)c1ccc(S(=O)(=O)c2ccc3c(c2)C(=O)N(NC(=O)c2ccc(O)cc2)C3=O)cc1` [CBK264229]: the viability at 28.5 h, 10 µM was 102%.
On the same count and under the same terms, to `Cn1cnnc1SCCNC(=O)N1CCc2sccc2C1` [CBK307385] belongs 97.3%; to `COCCOCC(C)NC(=O)COc1nn(C)c2nc(C)cc(C)c12` (stereo not shown) [CBK305177], 105%.
Consider `CC(=O)N[C@H]1CO[C@H]2[C@@H]1OC[C@H]2OC(=O)Nc1ccc(Oc2ccccc2)cc1` [CBK289470], for which the viability at 28.5 h, 10 µM amounted to 113%.
Take `O=C(CCC(=O)Nc1ccc(I)cc1)N/N=C/c1ccc(Br)cc1` [CBK262010]: the viability at 28.5 h, 10 µM stood at 88.9%.
In the case of `O=C1CCCN1CCCNc1nccnc1-c1ccc(CO)cc1` [CBK036860], the viability at 28.5 h, 10 µM came out at 87.2%.
On to `O=S(=O)(c1ccc2ccccc2c1)c1cnns1` [CBK001887], for which the viability at 28.5 h, 10 µM was determined as 97.7%.
Regarding `Cc1nn(S(=O)(=O)c2cccc3nsnc23)c(C)c1Cl` [CBK270323], the viability at 28.5 h, 10 µM was 92.6%.
For `O=C(c1nccs1)C1CCN(C(=O)Cc2ccsc2)CC1` [CBK284176], the viability at 28.5 h, 10 µM was found to be 95.5%.
As to `CC(C)(CN(Cc1ccccc1)C(=O)/C=C/c1ccccc1)NC(=O)OC(C)(C)C` [CBK003266], the viability at 28.5 h, 10 µM is 91.2%.
On to `O=C(O)c1[nH]n(-c2ccc(Cl)cc2)c(=O)c1CCO` [CBK287079], for which the viability at 28.5 h, 10 µM came to 101%.
Take `COC(=O)c1cn([C@H]2CO[C@H]3[C@@H]2OC[C@H]3OC(=O)Nc2ccccc2)nn1` [CBK289492]: the viability at 28.5 h, 10 µM turned out to be 91.4%.
For the molecule `O=C(O)CC(C(=O)O)c1ccc(F)cc1` (stereo not shown) [CBK268531], the viability at 28.5 h, 10 µM was 87.6%.
In the case of `Cc1cc(Cl)ccc1CNC(=O)/C=C/c1ccc(C(C)C)cc1` [CBK149615], the viability at 28.5 h, 10 µM was found to be 85.2%.
For `C[C@H](NC(=O)Cc1ccc(-c2ccccc2)cc1)c1nc2ccccc2[nH]1` [CBK296998], the viability at 28.5 h, 10 µM worked out at 98.5%.
The same measure, in the same setting: to `NC(=O)CCC(NC=O)C(=O)O` (stereo not shown) [CBK260967] belongs 88.4%.
Take `CC1OCN(c2ccc(C(C)(C)C)cc2)Cn2c1nc1ccccc12` (stereo not shown) [CBK018706]: the viability at 28.5 h, 10 µM was found to be 88%.
`O=C(Nc1ccccc1[N+](=O)[O-])c1cc(S(=O)(=O)NCc2ccco2)ccc1Cl` [CBK264557]: the viability at 28.5 h, 10 µM turned out to be 94.4%.
On to `O=C(CN1CCC(NC(=O)c2cccs2)CC1)Nc1ccc(F)c(F)c1` [CBK305991], for which the viability at 28.5 h, 10 µM amounted to 83.8%.
The same measure, in the same setting: to `COc1ccc(Sc2nccc(C(F)(F)F)n2)cc1OC` [CBK093772] belongs 90.4%; to `O=C(O)/C=C\C(=O)Nc1ccccc1C(=O)N1CCOCC1` [CBK287067], 100%.
`Cc1ccc(N2C(=O)c3ccc(C(=O)OCc4ccc([N+](=O)[O-])cc4)cc3C2=O)cc1Cl` [CBK265730]: the viability at 28.5 h, 10 µM turned out to be 103%.
As to `CNC(=O)c1ccc(-c2cc(C)cs2)nc1N(C)C` [CBK106150], the viability at 28.5 h, 10 µM was 86.8%.
On the same count and under the same terms, then `CSCCNC(=O)c1coc(COc2ccc3sc(C)nc3c2)n1` [CBK307004], with 99.3%; and `Cc1ccc2c(c1)c(C(=O)N1CCn3nc(CO)cc3C1)nn2C` [CBK307134], with 104%; and `O=C(O)CCC(=O)Nc1ccc(-c2nc3cc(C(=O)c4ccccc4)ccc3[nH]2)cc1` [CBK267401], with 100%.
As to `CCc1c(C)nc2c(C(=O)NCCCOC)cnn2c1C` [CBK162149], the viability at 28.5 h, 10 µM worked out at 82.2%.
With `CNC(=O)c1ccc(-c2ccc(CNC(=O)CCc3cccc(Cl)c3)cc2)nc1C` [CBK286015], the viability at 28.5 h, 10 µM came to 86.9%.
On the same count and under the same terms, then `CCCC(SCC)C(N)=O` (stereo not shown) [CBK020895], with 99.1%; and `CC(=O)N[C@@H](CC(C)C)C(=O)Nc1cc(C)nc2ccccc12` [CBK116265], with 94.3%.
Take `COc1ccc(C(C)C)cc1-c1cncc(N[C@H](C)c2ccccc2)n1` [CBK065535]: the viability at 28.5 h, 10 µM is 105%.
For the molecule `Cc1ccccc1C1(O)CCN(CC(O)c2ccc3c(c2)CCC3)CC1` (stereo not shown) [CBK286329], the viability at 28.5 h, 10 µM was found to be 88%.
Turning to `FC(F)(F)c1ccc2[nH]c(Cn3cncn3)nc2c1` [CBK007335], the viability at 28.5 h, 10 µM turned out to be 85.3%.
On to `COc1ccc(-c2nc(NC(=O)Cc3ccccc3OC(F)(F)F)cnc2-c2cccc(C)c2)cc1` [CBK037551], for which the viability at 28.5 h, 10 µM is 107%.
The same measure, in the same setting: then `CCOC(=O)c1cccc(-c2ccc(OC)c(OC)c2)n1` [CBK149247], with 95.4%.
For the molecule `O=C(NC(=S)N1CCN(c2ccc([N+](=O)[O-])c(N3CCOCC3)c2)CC1)c1cc2ccccc2o1` [CBK268335], the viability at 28.5 h, 10 µM stood at 109%.
Still for that read-out and setting: then `CCOc1ccc(CNc2ccc(C3c4ccsc4CCN3C(C)=O)cc2)cc1` (stereo not shown) [CBK286451], with 96.3%.
With `CCc1ccc(NC(=O)CN2CCN(c3ccccc3F)CC2)cc1` [CBK307549], the viability at 28.5 h, 10 µM stood at 112%.
For the molecule `Fc1ccc(-c2cc(C(F)(F)F)nc(NCC3CCCO3)n2)cc1` (stereo not shown) [CBK269492], the viability at 28.5 h, 10 µM was found to be 89.1%.
As to `CCn1ncc2c(C(=O)NC(C)COC)cc(-c3cccs3)nc21` (stereo not shown) [CBK304955], the viability at 28.5 h, 10 µM amounted to 87.1%.
For `COc1ccc(N(CC(=O)Nc2cccc3cccnc23)S(=O)(=O)c2ccc(C)cc2)cc1` [CBK263965], the viability at 28.5 h, 10 µM was 74%.
In the case of `COc1ccccc1-c1cc2nc(C)cc(NCC3CCCO3)n2n1` (stereo not shown) [CBK304277], the viability at 28.5 h, 10 µM came to 96.5%.
Consider `O=C1O[C@@H](CO)CN1c1ccc(N(Cc2ccccc2)Cc2ccccc2)c(F)c1` [CBK016873], for which the viability at 28.5 h, 10 µM was determined as 103%.
With `CCC(C)NC(=O)C(Cc1ccc([N+](=O)[O-])cc1)N1C(=O)c2ccccc2C1=O` (stereo not shown) [CBK261278], the viability at 28.5 h, 10 µM was determined as 105%.
As to `Cc1cc(COc2cc(N3CCCN(Cc4ccc5c(c4)OCO5)CC3)ncn2)no1` [CBK083335T], the viability at 28.5 h, 10 µM turned out to be 95.7%.
Turning to `COCCN1CC(CNC(=O)c2ccc(N3CCCC3)c(Cl)c2)CC1=O` (stereo not shown) [CBK307680], the viability at 28.5 h, 10 µM came out at 84%.
As to `COc1ccc(CCC(=O)Nc2nnc[nH]2)cc1` [CBK027896], the viability at 28.5 h, 10 µM was found to be 101%.
Still for that read-out and setting: then `CC12CCC(=O)N1C(C(=O)NCCNc1ccc(S(C)(=O)=O)cc1[N+](=O)[O-])CS2` (stereo not shown) [CBK296661], with 87.6%.
Regarding `COc1cc(CNC2CCCCCC2)c([N+](=O)[O-])cc1OC` [CBK262194], the viability at 28.5 h, 10 µM worked out at 96.4%.

The data set is the same for the next values; noted with them: human, hela cells, % viability, bulk resorufin, single well.
Consider `COc1ccc(CN2CCN(Cc3ccccc3)CC2)c(OC)c1` [CBK261553], for which the viability at 28.5 h, 10 µM was determined as 115%.
Same read-out and setting: then `O=C1NC(=O)N(c2ccc(Br)cc2)C(=O)/C1=C/c1ccc(O)c(O)c1` [CBK278167], with 104%.

Values taken from paper PMC12040169 (PLOS Biology, 2025).
